Source: US6528504B2, “Oxazepine derivatives and medicine containing the same” (Ajinomoto Co., Inc., priority 1999, dated 2003)
Structures can show the parent of a compound that is named as a salt.

Assays:
calcium channel (ileum) = calcium channel (ileum) (Rattus norvegicus, UniProt P22002); assay: In vitro calcium channel antagonistic effect (ileum): inhibition of high potassium contraction of ileum samples; settings: high potassium (45.0 mM KCl) contraction, 10^−7 M test compound, 30 minute pretreatment, read-out: Inhibition rate (%) (conc.: 10^−7M)
Sequence of calcium channel (ileum) (P22002 whole entry): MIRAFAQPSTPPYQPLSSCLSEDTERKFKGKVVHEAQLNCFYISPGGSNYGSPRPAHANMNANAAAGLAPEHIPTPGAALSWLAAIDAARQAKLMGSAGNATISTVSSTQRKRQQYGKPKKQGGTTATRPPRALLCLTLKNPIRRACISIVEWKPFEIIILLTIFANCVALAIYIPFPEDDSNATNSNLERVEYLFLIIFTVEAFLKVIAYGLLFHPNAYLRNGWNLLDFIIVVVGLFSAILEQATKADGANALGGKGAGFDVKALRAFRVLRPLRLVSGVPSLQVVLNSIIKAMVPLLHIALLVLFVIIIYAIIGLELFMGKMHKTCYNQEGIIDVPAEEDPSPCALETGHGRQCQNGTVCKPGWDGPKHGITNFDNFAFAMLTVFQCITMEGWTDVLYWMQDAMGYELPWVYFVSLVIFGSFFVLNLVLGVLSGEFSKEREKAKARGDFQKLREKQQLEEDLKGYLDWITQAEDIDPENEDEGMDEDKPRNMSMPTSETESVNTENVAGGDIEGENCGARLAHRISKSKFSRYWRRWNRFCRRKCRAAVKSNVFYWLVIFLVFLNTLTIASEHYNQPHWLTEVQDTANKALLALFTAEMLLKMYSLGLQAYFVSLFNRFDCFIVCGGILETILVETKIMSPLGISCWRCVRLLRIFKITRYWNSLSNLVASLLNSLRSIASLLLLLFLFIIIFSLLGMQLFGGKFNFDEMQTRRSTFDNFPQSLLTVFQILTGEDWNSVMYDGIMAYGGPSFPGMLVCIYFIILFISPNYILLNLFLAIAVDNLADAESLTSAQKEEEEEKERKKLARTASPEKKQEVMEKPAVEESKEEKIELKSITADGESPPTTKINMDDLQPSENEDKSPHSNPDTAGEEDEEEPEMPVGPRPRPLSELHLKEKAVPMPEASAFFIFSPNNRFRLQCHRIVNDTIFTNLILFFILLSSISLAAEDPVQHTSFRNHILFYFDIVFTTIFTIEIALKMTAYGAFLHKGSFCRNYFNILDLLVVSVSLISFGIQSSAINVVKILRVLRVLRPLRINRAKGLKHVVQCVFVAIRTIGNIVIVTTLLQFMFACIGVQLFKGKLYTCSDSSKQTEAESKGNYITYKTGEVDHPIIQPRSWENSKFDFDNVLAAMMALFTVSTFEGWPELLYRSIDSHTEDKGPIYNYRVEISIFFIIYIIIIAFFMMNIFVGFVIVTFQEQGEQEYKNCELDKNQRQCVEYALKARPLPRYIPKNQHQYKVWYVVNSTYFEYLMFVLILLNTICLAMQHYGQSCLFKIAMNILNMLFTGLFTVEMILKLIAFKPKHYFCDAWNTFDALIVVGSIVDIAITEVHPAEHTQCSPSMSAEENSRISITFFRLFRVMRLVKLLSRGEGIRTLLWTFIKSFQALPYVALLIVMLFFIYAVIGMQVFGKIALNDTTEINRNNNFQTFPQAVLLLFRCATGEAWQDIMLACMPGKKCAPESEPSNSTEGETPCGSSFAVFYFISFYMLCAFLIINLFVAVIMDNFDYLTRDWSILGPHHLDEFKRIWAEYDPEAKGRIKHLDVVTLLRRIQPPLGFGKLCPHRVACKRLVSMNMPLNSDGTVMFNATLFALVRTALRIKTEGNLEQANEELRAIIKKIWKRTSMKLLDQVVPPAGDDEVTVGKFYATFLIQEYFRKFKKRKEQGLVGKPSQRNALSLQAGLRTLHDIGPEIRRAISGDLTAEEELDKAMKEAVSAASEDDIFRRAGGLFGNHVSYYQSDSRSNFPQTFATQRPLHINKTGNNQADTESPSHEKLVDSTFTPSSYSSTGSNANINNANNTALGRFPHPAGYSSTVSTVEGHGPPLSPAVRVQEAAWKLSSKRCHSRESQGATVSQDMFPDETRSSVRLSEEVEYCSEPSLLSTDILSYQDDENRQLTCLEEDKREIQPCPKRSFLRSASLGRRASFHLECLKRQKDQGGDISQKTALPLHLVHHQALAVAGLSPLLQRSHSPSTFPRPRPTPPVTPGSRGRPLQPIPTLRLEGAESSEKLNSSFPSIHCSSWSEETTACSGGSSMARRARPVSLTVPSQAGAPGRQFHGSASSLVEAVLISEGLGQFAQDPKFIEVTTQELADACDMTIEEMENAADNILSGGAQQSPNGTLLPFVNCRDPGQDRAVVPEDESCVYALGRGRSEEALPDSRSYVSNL
Method: In vitro calcium channel antagonistic effect (ileum)
(§1) The ileum of each of male Crj:CD rats (8 to 12 weeks old) was extracted at a part 3 cm apart from the ileocecal region. The ileum sample was suspended in 37° C. Tyrode's solution through which a gaseous mixture (95% of oxygen and 5% of carbon dioxide) was passed. For examining the change in tensile strength of the ileum, the isotonicity thereof was recorded on a pen-writing recorder through a transducer. The high potassium contraction was caused by exchanging the nutrient solution from Tyrode's solution to potassium-Tyrode's solution (94.6 mM of NaCl, 45.0 mM of KCl, 1.8 mM of CaCl2, 1.04 mM of MgCl2, 0.4 mM of NaH2PO4, 11.9 mM of NaHCO3 and 5.55 mM of glucose). The high potassium contraction-inhibiting effect of a test compound was evaluated by 30 minute pretreatment. Compound A described in European Patent No. 0404359A1 and compound B described in International Patent No. 9733885A1 were used as comparative substances. The calcium channel antagonistic activity was shown as the rate (%) of inhibition of control of high-calcium contraction with 10^−7 M test compound.

[1] = biological target: calcium channel (blood vessel, thoracic aorta) (Rattus norvegicus, UniProt P22002); assay: In vitro calcium channel antagonistic effect (blood vessel): inhibition of high potassium contraction of helical thoracic aorta samples; settings: high potassium (45.0 mM KCl) contraction, 10^−7 M test compound, 30 minute pretreatment, read-out: Inhibition rate (%) (conc: 10^−7 M)
Sequence of calcium channel (blood vessel, thoracic aorta) (P22002 whole entry): as above
Method: In vitro calcium channel antagonistic effect (blood vessel)
as §1, with “thoracic aorta was extracted from” for “ileum of”, “to prepare helical samples.” for “was extracted at a part 3 cm apart from the ileocecal region.”, “blood vessel samples were” for “ileum sample was”, “blood vessel,” for “ileum,”, “isometry” for “isotonicity”

Row | SMILES | inhibition at 0.1 µM (calcium channel (ileum)) [%] | inhibition at 0.1 µM [1] [%] | melting point [°C]
1 | COc1ccc(CCN2CCCC2CN2c3ccccc3CSc3ccccc32)cc1 (centres unmarked) [Compound A, reference compound] | 48 | 9 | –
2 | COc1ccc(CCN2CCC[C@@H]2CN2c3ccccc3COc3ccccc32)cc1 [Compound B, reference compound] | 67 | 17 | –
3 | COc1ccc(CCN2CCCC[C@@H]2CN2c3ccccc3COc3ccccc32)cc1.Cl [Example 1, (R)-5,11-Dihydro-5-[1-(4-methoxyphenethyl)piperidine-2-ylmethyl]dibenzo[b,e][1,4]oxazepine Hydrochloride] | 90 | 38 | 199 to 201
4 | COc1cccc(CCN2CCCC[C@@H]2CN2c3ccccc3COc3ccccc32)c1 [Example 3, (R)-5,11-Dihydro-5-[1-(3-methoxyphenethyl)piperidine-2-ylmethyl] dibenzo[b,e][1,4]oxazepine Hydrochloride] | 61 | 33 | –
5 | COc1ccc(CCCN2CCCC[C@@H]2CN2c3ccccc3COc3ccccc32)cc1 [Example 4, (R)-5,11-Dihydro-5-[1-[3-(4-methoxyphenyl)propyl]piperidine-2-ylmethyl]dibenzo[b,e][1,4]oxazepine Hydrochloride] | 64 | 32 | –
6 | c1ccc2c(c1)COc1ccccc1N2C[C@H]1CCCCN1CCc1ccc2c(c1)OCO2 [Example 5, (R)-5,11-Dihydro-5-[1-(3,4-methylenedioxyphenethyl)piperidine-2-yl-methyl] dibenzo[b,e][1,4]oxazepine Hydrochloride] | 66 | 27 | –
7 | Clc1ccc(CCN2CCCC[C@@H]2CN2c3ccccc3COc3ccccc32)cc1 [Example 6, (R)-5-[1-(4-chlorophenethyl)piperidine-2-ylmethyl]-5,11-dihydrodibenzo [b,e][1,4]oxazepine Hydrochloride] | 75 | 25 | –
8 | CN(C)c1ccc(CCN2CCCC[C@@H]2CN2c3ccccc3COc3ccccc32)cc1 [Example 7, (R)-5,11-Dihydro-5-[1-(4-dimethylaminophenethyl)piperidine-2-ylmethyl]dibenzo[b,e][1,4]oxazepine Dihydrochloride] | 78 | 23 | –
9 | COc1ccc(CCN2CC[C@@H](N3c4ccccc4COc4ccccc43)C2)cc1.Cl [Example 8, (R)-5,11-Dihydro-5-[1-(4-methoxyphenethyl)pyrrolidine-3-yl] dibenzo[b,e][1,4]oxazepine Hydrochloride] | 100 | 52 | 224 to 226
10 | CN(C)c1ccc(CCN2CC[C@@H](N3c4ccccc4COc4ccccc43)C2)cc1.Cl [Example 10, (R)-5,11-Dihydro-5-[1-(4-dimethylaminophenethyl)pyrrolidine-3-yl]dibenzo[b,e][1,4]oxazepine Hydrochloride] | 116 | 59 | 219 to 220
11 | COc1ccc(CCCN2CC[C@@H](N3c4ccccc4COc4ccccc43)C2)cc1 [Example 11, (R)-5,11-Dihydro-5-[1-[3-(4-methoxyphenyl)propyl]pyrrolidine-3-yl]dibenzo[b,e][1,4]oxazepine Hydrochloride] | 83 | 61 | –
12 | c1ccc2c(c1)COc1ccccc1N2[C@@H]1CCN(CCc2ccc3c(c2)OCO3)C1 [Example 12, (R)-5,11-Dihydro-5-[1-(3,4-methylenedioxyphenethyl)pyrrolidine-3-yl]dibenzo[b,e][1,4]oxazepine Hydrochloride] | 77 | 51 | –
13 | Clc1ccc(CCN2CC[C@@H](N3c4ccccc4COc4ccccc43)C2)cc1 [Example 13, (R)-5-[1-(4-chlorophenethyl)pyrrolidine-3-yl]-5,11-dihydrodibenzo[b,e][1,4] oxazepine Hydrochloride] | 76 | 38 | –
14 | COc1ccc(CCN(C)CCN2c3ccccc3COc3ccccc32)cc1.Cl [Example 14, 5,11-Dihydro-5-[2-[N-(4-methoxyphenethyl)-N-methylamino]ethyl]dibenzo[b,e][1,4]oxazepine Hydrochloride] | 105 | 43 | 139 to 140
15 | COc1cccc(CCN(C)CCN2c3ccccc3COc3ccccc32)c1 [Example 15, 5,11-Dihydro-5-[2-[N-(3-methoxyphenethyl)-N-methylamino]ethyl]dibenzo[b,e][1,4]oxazepine Hydrochloride] | 82 | 29 | –
16 | COc1ccc(CCCN(C)CCN2c3ccccc3COc3ccccc32)cc1 [Example 16, 5,11-Dihydro-5-[2-[N -[3-(4-methoxyphenyl)propyl]-N-methylamino]ethyl]dibenzo[b,e][1,4]oxazepine Hydrochloride] | 82 | 28 | –
17 | CN(CCc1ccc2c(c1)OCO2)CCN1c2ccccc2COc2ccccc21 [Example 17, 5,11-Dihydro-5-[2-[N-methyl-N-(3,4-methylenedioxyphenethyl)amino]ethyl]dibenzo[b,e][1,4]oxazepine Hydrochloride] | 78 | 30 | –
18 | CN(CCc1ccc(Cl)cc1)CCN1c2ccccc2COc2ccccc21 [Example 18, 5-[2-[N-(4-chlorophenethyl)-N-methylamino]ethyl]-5,11-dihydrodibenzo [b,e][1,4]oxazepine Hydrochloride] | 70 | 34 | –
19 | CN(CCc1ccc(N(C)C)cc1)CCN1c2ccccc2COc2ccccc21 [Example 19, 5,11-Dihydro-5-[2-[N-(4-dimethylaminophenethyl)-N-methylamino]ethyl]dibenzo[b,e][1,4]oxazepine Dihydrochloride] | 76 | 39 | –
20 | CN(CCc1cccc(N(C)C)c1)CCN1c2ccccc2COc2ccccc21 [Example 20, 5,11-Dihydro-5-[2-[N-(3-dimethylaminophenethyl)-N-methylamino]ethyl]dibenzo[b,e][1,4]oxazepine Dihydrochloride] | 50 | 28 | –
